This note sets out measurements from US20240083857A1, “2-Methyl-Quinazolines” (Bayer Pharma Aktiengesellschaft, priority 2017, published 2024).

Test [1] concerns the target human SOS1 (loading of human K-Ras^G12C-GDP with fluorescent GTP-analog) (Homo sapiens, UniProt Q07889). Kind of test: Biochemical assay 3: K-Ras^G12C activation assay by hSOS1 (HTRF). Particulars: no GTP; read-out: Assay 3 (KRAS-Activation by SOS no GTP) activity expressed as IC50.
Test [2] concerns the target Epidermal Growth Factor Receptor (EGFR) (Homo sapiens (Human), UniProt P00533). Kind of test: EGFR kinase assay (TR-FRET). The format is biochemical. The conditions noted are these: read-out: EGFR kinase inhibition IC50. Summed up: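 EGFR purified from A431 cells was preincubated with compound 15 min at 22° C in pH 7.0 Hepes buffer with MgCl2, MnCl2 and vanadate before reaction with a biotinylated peptide. After EDTA stop, phosphopeptide was detected by TR-FRET (anti-phosphotyrosine Tb-cryptate, streptavidin-XL665) as the 665/620 nm emission ratio.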

SMILES strings stand for the structures. Where two headings read alike, the source gives them in different places.

Chain of Epidermal Growth Factor Receptor (EGFR) (P00533 25-1210): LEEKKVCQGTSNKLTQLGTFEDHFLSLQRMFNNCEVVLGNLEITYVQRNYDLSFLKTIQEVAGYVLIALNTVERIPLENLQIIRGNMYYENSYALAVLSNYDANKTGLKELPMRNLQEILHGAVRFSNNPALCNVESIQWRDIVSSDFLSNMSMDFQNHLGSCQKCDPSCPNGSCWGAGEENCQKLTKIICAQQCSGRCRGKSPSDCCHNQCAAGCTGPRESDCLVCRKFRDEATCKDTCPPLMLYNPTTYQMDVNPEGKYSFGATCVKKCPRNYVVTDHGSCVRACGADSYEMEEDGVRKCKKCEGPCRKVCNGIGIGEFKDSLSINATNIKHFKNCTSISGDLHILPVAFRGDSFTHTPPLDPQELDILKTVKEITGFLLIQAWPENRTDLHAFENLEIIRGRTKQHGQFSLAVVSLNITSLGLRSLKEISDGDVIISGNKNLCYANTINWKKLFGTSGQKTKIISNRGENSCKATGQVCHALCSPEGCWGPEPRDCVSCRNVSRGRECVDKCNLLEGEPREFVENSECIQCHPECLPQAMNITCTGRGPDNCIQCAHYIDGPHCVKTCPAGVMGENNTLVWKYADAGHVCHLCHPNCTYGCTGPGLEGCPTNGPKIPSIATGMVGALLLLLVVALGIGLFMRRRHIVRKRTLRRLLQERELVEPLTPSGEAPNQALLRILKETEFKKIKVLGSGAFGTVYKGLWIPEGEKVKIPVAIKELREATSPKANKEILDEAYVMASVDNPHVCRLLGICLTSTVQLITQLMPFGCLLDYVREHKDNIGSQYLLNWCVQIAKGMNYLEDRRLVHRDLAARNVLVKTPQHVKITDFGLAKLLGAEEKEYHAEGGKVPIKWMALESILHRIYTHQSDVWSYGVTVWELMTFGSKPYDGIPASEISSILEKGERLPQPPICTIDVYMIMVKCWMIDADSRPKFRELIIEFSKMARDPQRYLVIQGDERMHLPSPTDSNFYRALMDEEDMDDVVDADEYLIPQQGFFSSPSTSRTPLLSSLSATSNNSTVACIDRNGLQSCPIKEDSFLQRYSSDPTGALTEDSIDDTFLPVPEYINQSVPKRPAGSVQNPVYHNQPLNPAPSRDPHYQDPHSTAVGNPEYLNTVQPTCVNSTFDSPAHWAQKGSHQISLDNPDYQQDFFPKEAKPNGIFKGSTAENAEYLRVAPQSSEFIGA

Regarding `COc1cc2nc(C)nc(N[C@H](C)c3cccc(-c4cn[nH]c4)c3)c2cc1OCc1ccccc1` [Example 344, 6-(benzyloxy)-7-methoxy-2-methyl-N-{(1R)-1-[3-(1H-pyrazol-4-yl)phenyl]ethyl}-quinazolin-4-amine], the IC50 was 1.86 µM in test [1] and greater than 20 µM in test [2] (values given in μM).
The matching figures for `CC[C@@H](O)c1ccccc1-c1ccc(C(C)Nc2nc(C)nc3cc(OC)c(OC)cc23)s1` (stereo partly drawn) [Example 349, (1R)-1-[2-(5-{1-[(6,7-dimethoxy-2-methylquinazolin-4-yl)amino]ethyl}thiophen-2-yl)phenyl]propan-1-ol]: 0.74 µM and greater than 20 µM.
The matching figures for `COc1cc2nc(C)nc(NC(C)c3ccc(-c4ccccc4[C@H](C)N)s3)c2cc1OC` (stereo in doubt) [Example 360, N-[1-(5-{2-[1-aminoethyl]phenyl}thiophen-2-yl)ethyl]-6,7-dimethoxy-2-methylquinazolin-4-amine]: 0.19 µM and greater than 20 µM.
On to `COc1cc2nc(C)nc(NC(C)c3ccc4c(c3)CCO4)c2cc1OC` (stereo not drawn) [Example 24, N-[1-(2,3-dihydro-1-benzofuran-5-yl)ethyl]-6,7-dimethoxy-2-methylquinazolin-4-amine], for which the concentration for half-maximal inhibition (IC50) in test [1] was 2.45 µM; in test [2] (values given in μM), greater than 20 µM.
The matching figures for `COc1cc2nc(C)nc(NC(C)c3ccc(-c4ccccc4[C@@H](C)N)s3)c2cc1OC` (stereo in doubt) [Example 359, N-[1-(5-{2-[1-aminoethyl]phenyl}thiophen-2-yl)ethyl]-6,7-dimethoxy-2-methylquinazolin-4-amine]: 0.299 µM and greater than 20 µM.
The matching figures for `COc1cc2nc(C)nc(NC(C)c3c(C)nc4ccccn34)c2cc1OC` (stereo not drawn) [Example 26, 6,7-dimethoxy-2-methyl-N-[1-(2-methylimidazo[1,2-a]pyridin-3-yl)ethyl]quinazolin-4-amine]: 6.96 µM and greater than 20 µM.
The matching figures for `COc1cc2nc(C)nc(NC(C)c3ccc(-c4ccccc4CNC4CCCC4)s3)c2cc1OC` (stereo not drawn) [Example 364, N-[1-(5-{2-[(cyclopentylamino)methyl]phenyl}thiophen-2-yl)ethyl]-6,7-dimethoxy-2-methylquinazolin-4-amine]: 0.217 µM and greater than 20 µM.
With `COc1cc2nc(C)nc(NC(C)c3ccc4c(c3)NC(=O)CO4)c2cc1OC` (stereo not drawn) [Example 34, 6-{1-[(6,7-dimethoxy-2-methylquinazolin-4-yl)amino]ethyl}-2H-1,4-benzoxazin-3(4H)-one], the half-inhibitory concentration (IC50) is 16.8 µM in test [1] and greater than 20 µM in test [2] (values given in μM).
As for `COCCOc1cc2c(N[C@H](C)c3cccc(-c4cn[nH]c4)c3)nc(C)nc2cc1OC` [Example 348, 7-methoxy-6-(2-methoxyethoxy)-2-methyl-N-{(1R)-1-[3-(1H-pyrazol-4-yl)phenyl]-ethyl}quinazolin-4-amine], the half-maximal inhibitory concentration (IC50) in test [1] is 0.753 µM; in test [2] (values given in μM) it was greater than 20 µM.
The matching figures for `Cc1nc(N[C@H](C)c2cccc(Cl)c2)c2cc(Br)ccc2n1` [Example 363, 6-bromo-N-[(1R)-1-(3-chlorophenyl)ethyl]-2-methylquinazolin-4-amine]: 17.2 µM and greater than 20 µM.
The matching figures for `CCCCOc1cc2c(N[C@H](C)c3cccc(-c4cn[nH]c4)c3)nc(C)nc2cc1OC` [Example 350, 6-butoxy-7-methoxy-2-methyl-N-{(1R)-1-[3-(1H-pyrazol-4-yl)phenyl]ethyl}quinazolin-4-amine]: 0.85 µM and greater than 20 µM.
The matching figures for `COc1cc2nc(C)nc(NC(C)c3ccc4c(c3)OCO4)c2cc1OC` (stereo not drawn) [Example 23, N-[1-(1,3-benzodioxol-5-yl)ethyl]-6,7-dimethoxy-2-methylquinazolin-4-amine]: 8.62 µM and greater than 20 µM.
`COc1cc2nc(C)nc(NC(C)c3ccc(-c4ccccc4CNCc4ccccc4)s3)c2cc1OC` (stereo not drawn) [Example 365, N-[1-(5-{2-[(benzylamino)methyl]phenyl}thiophen-2-yl)ethyl]-6,7-dimethoxy-2-methylquinazolin-4-amine]: the figures for the IC50 in test [1] and in test [2] (values given in μM) were 0.353 µM and greater than 20 µM, respectively.
For the compound `CCNCc1ccccc1-c1ccc(C(C)Nc2nc(C)nc3cc(OC)c(OC)cc23)s1` (stereo not drawn) [Example 367, N-[1-(5-{2-[(ethylamino)methyl]phenyl}thiophen-2-yl)ethyl]-6,7-dimethoxy-2-methylquinazolin-4-amine], the IC50 is 0.099 µM in test [1] and greater than 20 µM in test [2] (values given in μM).
The matching figures for `CCOc1cc2c(N[C@H](C)c3cccc(-c4cn[nH]c4)c3)nc(C)nc2cc1OC` [Example 355, 6-Ethoxy-7-methoxy-2-methyl-N-{(1R)-1-[3-(1H-pyrazol-4-yl)phenyl]ethyl}-quinazolin-4-amine]: 0.714 µM and greater than 20 µM.
The matching figures for `Cc1nc(N[C@H](C)c2ccc(F)cc2)c2cc(N=S(C)(C)=O)ccc2n1` [Example 32, 6-{[dimethyl(oxido)-lambda6-sulfanylidene]amino}-N-[(1R)-1-(4-fluorophenyl)ethyl]-2-methylquinazolin-4-amine]: 2.59 µM and greater than 20 µM.
The matching figures for `COc1cc2nc(C)nc(N[C@H](C)c3cccc(-c4cn[nH]c4)c3)c2cc1O` [Example 345, 7-methoxy-2-methyl-4-({(1R)-1-[3-(1H-pyrazol-4-yl)phenyl]ethyl}amino)quinazolin-6-ol]: 29.4 µM and greater than 20 µM.
In the case of `COc1cc2nc(C)nc(N[C@H](C)c3cccc(-c4cn[nH]c4)c3)c2cc1OCCC(C)C` [Example 351, 7-methoxy-2-methyl-6-(3-methylbutoxy)-N-{(1R)-1-[3-(1H-pyrazol-4-yl)phenyl]ethyl}quinazolin-4-amine], the IC50 is 1.31 µM in test [1] and greater than 20 µM in test [2] (values given in μM).
The matching figures for `Cc1nc(N[C@H](C)c2ccccc2)c2cc(N=S(C)(C)=O)ccc2n1` [Example 30, 6-{[dimethyl(oxido)-lambda6-sulfanylidene]amino}-2-methyl-N-[(1R)-1-phenylethyl]quinazolin-4-amine]: 2.91 µM and greater than 20 µM.
The matching figures for `COc1cc2nc(C)nc(N[C@H](C)c3cccc(Br)c3)c2cc1OCc1ccccc1` [Example 343, 6-(benzyloxy)-N-[(1R)-1-(3-bromophenyl)ethyl]-7-methoxy-2-methylquinazolin-4-amine]: 4.33 µM and greater than 20 µM.
The matching figures for `CCCCNCc1ccccc1-c1ccc(C(C)Nc2nc(C)nc3cc(OC)c(OC)cc23)s1` (stereo not drawn) [Example 366, N-[1-(5-{2-[(butylamino)methyl]phenyl}thiophen-2-yl)ethyl]-6,7-dimethoxy-2-methylquinazolin-4-amine]: 0.136 µM and greater than 20 µM.
Take `COc1cc2nc(C)nc(NC(C)c3ccc(-c4ccccc4[C@@H](C)NC(=O)OC(C)(C)C)s3)c2cc1OC` (stereo in doubt) [Example 358, tert-butyl {1-[2-(5-{1-[(6,7-dimethoxy-2-methylquinazolin-4-yl)amino]ethyl}thiophen-2-yl)phenyl]ethyl}carbamate]: the half-maximal inhibitory concentration (IC50) in test [1] was 2.45 µM; in test [2] (values given in μM) it was greater than 20 µM.
Turning to `COc1cc2nc(C)nc(N[C@H](C)c3cccc(-c4cn[nH]c4)c3)c2cc1OCC1COC1` [Example 354, 7-methoxy-2-methyl-6-(oxetan-3-ylmethoxy)-N-{(1R)-1-[3-(1H-pyrazol-4-yl)phenyl]ethyl}quinazolin-4-amine], the results for the half-maximal inhibitory concentration (IC50) in test [1] and in test [2] (values given in μM) were 0.677 µM and greater than 20 µM, respectively.
The matching figures for `COc1cc2nc(C)nc(N[C@H](C)c3cccc(-c4cn[nH]c4)c3)c2cc1OC(C)C` [Example 353, 7-methoxy-2-methyl-6-(propan-2-yloxy)-N-{(1R)-1-[3-(1H-pyrazol-4-yl)phenyl]ethyl}quinazolin-4-amine]: 0.453 µM and greater than 20 µM.
Consider `COc1cc2nc(C)nc(NC(C)c3csc4ccccc34)c2cc1OC` (stereo not drawn) [Example 27, N-[1-(1-benzothiophen-3-yl)ethyl]-6,7-dimethoxy-2-methylquinazolin-4-amine], for which the half-inhibitory concentration (IC50) is 0.498 µM in test [1] and greater than 20 µM in test [2] (values given in μM).
The matching figures for `COc1cc2nc(C)nc(NC(C)c3cccc4c3CCO4)c2cc1OC` (stereo not drawn) [Example 22, N-[1-(2,3-dihydro-1-benzofuran-4-yl)ethyl]-6,7-dimethoxy-2-methylquinazolin-4-amine]: 0.589 µM and greater than 20 µM.
Regarding `COc1cc2nc(C)nc(N[C@H](C)c3cccc(-c4ccc(O)nc4)c3)c2cc1OC` [Example 68, 5-(3-{(1R)-1-[(6,7-dimethoxy-2-methylquinazolin-4-yl)amino]ethyl}phenyl)pyridin-2-ol], the IC50 in test [1] turned out to be 0.471 µM; in test [2] (unit inferred), 6.92 µM.
For `COc1cc2nc(C)nc(NC(C)c3ccc(-c4ccccc4-c4cn[nH]c4)s3)c2cc1OC` (stereo not drawn) [Example 361, 6,7-dimethoxy-2-methyl-N-[1-{5-[2-(1H-pyrazol-4-yl)phenyl]thiophen-2-yl}ethyl]-quinazolin-4-amine], the concentration for half-maximal inhibition (IC50) was 8.6 µM in test [1] and greater than 20 µM in test [2] (values given in μM).
The matching figures for `COc1cc2nc(C)nc(N[C@H](C)c3ccc(-c4ccccc4CCN)s3)c2cc1OC` (stereo in doubt) [Example 357, N-[1-{5-[2-(2-aminoethyl)phenyl]thiophen-2-yl}ethyl]-6,7-dimethoxy-2-methylquinazolin-4-amine]: 0.0692 µM and greater than 20 µM.
The matching figures for `COc1cc2nc(C)nc(NC(C)c3ccc(-c4ccccc4CCNC(=O)OC(C)(C)C)s3)c2cc1OC` (stereo not drawn) [Example 352, tert-butyl {2-[2-(5-{1-[(6,7-dimethoxy-2-methylquinazolin-4-yl)amino]ethyl}thiophen-2-yl)phenyl]ethyl}carbamate]: 18.2 µM and greater than 20 µM.
